# Tests used:
# [1] = Catalyst precipitation; assay type: physicochemical
# Protocol: 20 grams of potassium monopersulfate, 0.1 grams cuprous chloride and 80 grams distilled water was added to a 250 ml beaker and mixed on a magnetic stirrer until dissolved. 1 gram of solution was carefully measured and diluted with 99 grams of distilled water. The diluted sample was treated with sodium bisulfite to remove residual monopersulfate, the pH was then adjusted to 7.3 using a diluted solution of sodium hydroxide. The resulting clear solution was tested using a HACH Company Method 8506 bicinchoninate-powder pillow test procedure and a DR-2000 spectrophotometer. The resulting copper level was measured and corrected compensate for the dilution. The final result being 4.9 ppm as Cu.
# A second 1-gram sample from the original solution was neutralized with sodium bisulfite, then treated with 2-grams of 0.1 wt % alum solution to achieve approximately 20 ppm as alum in the diluted solution. The pH was adjust with dilute sodium hydroxide to achieve a pH of approximately 7.3, mixed for about 5 minutes, then allowed to settle in a graduated cylinder. 25 ml of clear water was decanted and tested for copper, resulting a value of 0.78 ppm as Cu.
# [2] = tested on: planktonic algae; assay: Algae destruction in outdoor pool; assay type: cell-based; details: same pool system, opening procedure, 500 lbs
# Protocol: In an outdoor 360,000 gallon pool contaminated with planktonic algae, 200 lbs of the cobalt monopersulfate composition comprising 99.3 wt % Potassium monopersulfate, 0.5 wt % Magnesium Carbonate, and 0.2 wt % Cobalt Acetate as previously disclosed was added to the system by broadcasting. 40 pounds of soda ash was added to neutralize excess acidity, and the ORP controller was set at 780 mV.
# The ORP was consistently achieving 780 mV with 2.0-2.5 ppm of free chlorine.
# For comparison purposes, the same pool system during the opening procedure was treated with 500 lbs of calcium hypochlorite and allowed to circulate for 7 days before obtaining the water clarity and being allowed to open to swimmers.
compound,measurement,setting,value
alum,copper level in decanted clear water,"[1]; approximately 20 ppm alum, pH approximately 7.3, mixed about 5 minutes, settled",0.78 ppm as Cu
[Ca+2].[O-]Cl.[O-]Cl [calcium hypochlorite],circulation time before obtaining water clarity,[2],7 days
[Cl][Cu] [cuprous chloride],copper level,"[1]; no alum, 1:99 diluted, pH 7.3, monopersulfate removed",4.9 ppm as Cu

# From patent US20090304810A1, “Composition and method for enhanced sanitation and oxidation of aqueous systems” (priority 2005, published 2009)
